The supplement of paper PMC10307832

How the values were obtained:
Test in all cases: relative viability (nuclei count vs DMSO), 5 days (fraction); higher = more cells survive
[1] = compound: C1=CC=C(C(=C1)C2=CC=C(C=C2)C3=CSC4=C3C(=C(C(=O)N4)C#N)O)O + O=C(c1cc(Cc2n[nH]c(=O)c3ccccc23)ccc1F)N1CCN(C(=O)C2CC2)CC1 [Olaparib] (partner 8 µM)
In short: (§1)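 Cells from lung cancer lines were seeded into 1536-well plates and, one day later, dosed by pin tool. Treatments were either a single drug or a fixed dose of an anchor drug with five library-drug doses (not always all listed) in √10 steps. After 5 days, nuclei were stained in a one-step fixation (final 0.05% Triton X-100, 1% formaldehyde, 1 ug/ml Hoechst) and counted on 4× images, and relative viability is the treated-to-vehicle nuclei ratio, as the median of duplicate plates.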

[2] = compound: C1=CC=C(C(=C1)C2=CC=C(C=C2)C3=CSC4=C3C(=C(C(=O)N4)C#N)O)O + O=C(CCCCCCC(=O)Nc1ccccc1)NO [Vorinostat] (partner 1 µM)
In short: as §1

[3] = compound: C1=CC=C(C(=C1)C2=CC=C(C=C2)C3=CSC4=C3C(=C(C(=O)N4)C#N)O)O + NC(=O)Nc1cc(-c2cccc(F)c2)sc1C(=O)N[C@H]1CCCNC1 [AZD7762] (partner 0.2 µM)
In short: as §1

[4] = compound: CC1=CN2C(=O)C=C(N=C2C(=C1)C(C)NC3=CC=CC=C3)N4CCOCC4 [TGX 221] + O=C(CCCCCCC(=O)Nc1ccccc1)NO [Vorinostat] (partner 1 µM)
In short: as §1

NCI-H1993 gave a relative viability ([1]; first compound 0.08 µM) of 0.988, a relative viability ([1]; first compound 0.253 µM) of 1.67 and a relative viability ([1]; first compound 0.8 µM) of 0.894. The relative viability ([1]; first compound 2.53 µM) was 1.01, the relative viability ([1]; first compound 8 µM) was 0.882 and the relative viability ([2]; first compound 0.08 µM) was 0.57. It also gave a relative viability ([2]; first compound 0.253 µM) of 1.02, a relative viability ([2]; first compound 0.8 µM) of 0.979 and a relative viability ([2]; first compound 2.53 µM) of 0.845. It also gave a relative viability ([2]; first compound 8 µM) of 0.644, a relative viability ([3]; first compound 0.08 µM) of 0.812 and a relative viability ([3]; first compound 0.253 µM) of 0.841. It also gave a relative viability ([3]; first compound 0.8 µM) of 0.811, a relative viability ([3]; first compound 2.53 µM) of 0.74 and a relative viability ([3]; first compound 8 µM) of 0.646. The relative viability ([4]; first compound 0.08 µM) was 0.821, the relative viability ([4]; first compound 0.253 µM) was 0.611 and the relative viability ([4]; first compound 0.8 µM) was 0.742. For the same cell line, the relative viability ([4]; first compound 2.53 µM) was 0.788 and the relative viability ([4]; first compound 8 µM) was 0.724.

NCI-H2085 was tested, and the relative viability ([1]; first compound 0.08 µM) was 0.754, the relative viability ([1]; first compound 0.253 µM) was 0.847 and the relative viability ([1]; first compound 0.8 µM) was 0.771. For the same cell line, the relative viability ([1]; first compound 2.53 µM) was 0.796, the relative viability ([1]; first compound 8 µM) was 0.702 and the relative viability ([2]; first compound 0.08 µM) was 0.726. For the same cell line, the relative viability ([2]; first compound 0.253 µM) was 0.893, the relative viability ([2]; first compound 0.8 µM) was 0.764 and the relative viability ([2]; first compound 2.53 µM) was 0.784. For the same cell line, the relative viability ([2]; first compound 8 µM) was 0.714, the relative viability ([3]; first compound 0.08 µM) was 0.891 and the relative viability ([3]; first compound 0.253 µM) was 1.06. The relative viability ([3]; first compound 0.8 µM) was 0.86, the relative viability ([3]; first compound 2.53 µM) was 1.02 and the relative viability ([3]; first compound 8 µM) was 0.997. It also gave a relative viability ([4]; first compound 0.08 µM) of 0.86, a relative viability ([4]; first compound 0.253 µM) of 0.667 and a relative viability ([4]; first compound 0.8 µM) of 0.562. For the same cell line, the relative viability ([4]; first compound 2.53 µM) was 0.416 and the relative viability ([4]; first compound 8 µM) was 0.436.

Cell Line NCI-H2087 has a relative viability ([1]; first compound 0.08 µM) of 0.513, a relative viability ([1]; first compound 0.253 µM) of 0.587 and a relative viability ([1]; first compound 0.8 µM) of 0.667. For the same cell line, the relative viability ([1]; first compound 2.53 µM) was 0.811, the relative viability ([1]; first compound 8 µM) was 0.496 and the relative viability ([2]; first compound 0.08 µM) was 0.336. The relative viability ([2]; first compound 0.253 µM) was 0.672, the relative viability ([2]; first compound 0.8 µM) was 0.685 and the relative viability ([2]; first compound 2.53 µM) was 0.764. It also gave a relative viability ([2]; first compound 8 µM) of 0.918, a relative viability ([3]; first compound 0.08 µM) of 1.58 and a relative viability ([3]; first compound 0.253 µM) of 1.2. The relative viability ([3]; first compound 0.8 µM) was 1.25, the relative viability ([3]; first compound 2.53 µM) was 1.41 and the relative viability ([3]; first compound 8 µM) was 0.75. The relative viability ([4]; first compound 0.08 µM) was 0.814, the relative viability ([4]; first compound 0.253 µM) was 0.855 and the relative viability ([4]; first compound 0.8 µM) was 0.483. It also gave a relative viability ([4]; first compound 2.53 µM) of 0.664 and a relative viability ([4]; first compound 8 µM) of 0.932.

NCI-H2126 gave a relative viability ([1]; first compound 0.08 µM) of 0.888, a relative viability ([1]; first compound 0.253 µM) of 0.976 and a relative viability ([1]; first compound 0.8 µM) of 0.95. It also gave a relative viability ([1]; first compound 2.53 µM) of 0.955, a relative viability ([1]; first compound 8 µM) of 0.786 and a relative viability ([2]; first compound 0.08 µM) of 0.846. It also gave a relative viability ([2]; first compound 0.253 µM) of 0.787, a relative viability ([2]; first compound 0.8 µM) of 0.803 and a relative viability ([2]; first compound 2.53 µM) of 0.832. The relative viability ([2]; first compound 8 µM) was 0.732, the relative viability ([3]; first compound 0.08 µM) was 1.01 and the relative viability ([3]; first compound 0.253 µM) was 1.09. For the same cell line, the relative viability ([3]; first compound 0.8 µM) was 0.973, the relative viability ([3]; first compound 2.53 µM) was 1.1 and the relative viability ([3]; first compound 8 µM) was 0.763. The relative viability ([4]; first compound 0.08 µM) was 0.832, the relative viability ([4]; first compound 0.253 µM) was 0.741 and the relative viability ([4]; first compound 0.8 µM) was 0.768. It also gave a relative viability ([4]; first compound 2.53 µM) of 0.615 and a relative viability ([4]; first compound 8 µM) of 0.717.

In the case of NCI-H2170, the relative viability ([1]; first compound 0.08 µM) is reported as 0.624, the relative viability ([1]; first compound 0.253 µM) is reported as 0.617 and the relative viability ([1]; first compound 0.8 µM) is reported as 0.571. The relative viability ([1]; first compound 2.53 µM) was 0.687, the relative viability ([1]; first compound 8 µM) was 0.528 and the relative viability ([2]; first compound 0.08 µM) was 0.9. The relative viability ([2]; first compound 0.253 µM) was 0.819, the relative viability ([2]; first compound 0.8 µM) was 0.921 and the relative viability ([2]; first compound 2.53 µM) was 0.778. For the same cell line, the relative viability ([2]; first compound 8 µM) was 0.616, the relative viability ([3]; first compound 0.08 µM) was 0.898 and the relative viability ([3]; first compound 0.253 µM) was 0.722. For the same cell line, the relative viability ([3]; first compound 0.8 µM) was 0.875, the relative viability ([3]; first compound 2.53 µM) was 0.842 and the relative viability ([3]; first compound 8 µM) was 0.548. The relative viability ([4]; first compound 0.08 µM) was 0.754, the relative viability ([4]; first compound 0.253 µM) was 0.758 and the relative viability ([4]; first compound 0.8 µM) was 0.767. It also gave a relative viability ([4]; first compound 2.53 µM) of 0.759 and a relative viability ([4]; first compound 8 µM) of 0.831.

NCI-H2342 gave a relative viability ([1]; first compound 0.08 µM) of 0.475, a relative viability ([1]; first compound 0.253 µM) of 0.53 and a relative viability ([1]; first compound 0.8 µM) of 0.432. The relative viability ([1]; first compound 2.53 µM) was 0.517, the relative viability ([1]; first compound 8 µM) was 0.395 and the relative viability ([2]; first compound 0.08 µM) was 0.801. It also gave a relative viability ([2]; first compound 0.253 µM) of 0.83, a relative viability ([2]; first compound 0.8 µM) of 0.871 and a relative viability ([2]; first compound 2.53 µM) of 0.71. For the same cell line, the relative viability ([2]; first compound 8 µM) was 0.586, the relative viability ([3]; first compound 0.08 µM) was 0.432 and the relative viability ([3]; first compound 0.253 µM) was 0.536. It also gave a relative viability ([3]; first compound 0.8 µM) of 0.446, a relative viability ([3]; first compound 2.53 µM) of 0.474 and a relative viability ([3]; first compound 8 µM) of 0.358. For the same cell line, the relative viability ([4]; first compound 0.08 µM) was 0.697, the relative viability ([4]; first compound 0.253 µM) was 0.711 and the relative viability ([4]; first compound 0.8 µM) was 0.836. For the same cell line, the relative viability ([4]; first compound 2.53 µM) was 0.804 and the relative viability ([4]; first compound 8 µM) was 0.793.

In the case of NCI-H2347, the relative viability ([1]; first compound 0.08 µM) is reported as 0.645, the relative viability ([1]; first compound 0.253 µM) is reported as 0.632 and the relative viability ([1]; first compound 0.8 µM) is reported as 0.569. The relative viability ([1]; first compound 2.53 µM) was 0.634, the relative viability ([1]; first compound 8 µM) was 0.579 and the relative viability ([2]; first compound 0.08 µM) was 0.507. The relative viability ([2]; first compound 0.253 µM) was 0.59, the relative viability ([2]; first compound 0.8 µM) was 0.55 and the relative viability ([2]; first compound 2.53 µM) was 0.539. It also gave a relative viability ([2]; first compound 8 µM) of 0.568, a relative viability ([3]; first compound 0.08 µM) of 0.692 and a relative viability ([3]; first compound 0.253 µM) of 0.79. It also gave a relative viability ([3]; first compound 0.8 µM) of 0.758, a relative viability ([3]; first compound 2.53 µM) of 0.694 and a relative viability ([3]; first compound 8 µM) of 0.739. For the same cell line, the relative viability ([4]; first compound 0.08 µM) was 0.745, the relative viability ([4]; first compound 0.253 µM) was 0.506 and the relative viability ([4]; first compound 0.8 µM) was 0.478. It also gave a relative viability ([4]; first compound 2.53 µM) of 0.618 and a relative viability ([4]; first compound 8 µM) of 0.465.

For NCI-H2405, the relative viability ([1]; first compound 0.08 µM) was 0.896, the relative viability ([1]; first compound 0.8 µM) was 0.928 and the relative viability ([1]; first compound 2.53 µM) was 0.825. For the same cell line, the relative viability ([1]; first compound 8 µM) was 0.878, the relative viability ([2]; first compound 0.08 µM) was 0.983 and the relative viability ([2]; first compound 0.8 µM) was 0.956. For the same cell line, the relative viability ([2]; first compound 2.53 µM) was 0.955, the relative viability ([2]; first compound 8 µM) was 0.999 and the relative viability ([3]; first compound 0.08 µM) was 0.661. The relative viability ([3]; first compound 0.8 µM) was 0.752, the relative viability ([3]; first compound 2.53 µM) was 0.635 and the relative viability ([3]; first compound 8 µM) was 0.686. It also gave a relative viability ([4]; first compound 0.08 µM) of 0.87, a relative viability ([4]; first compound 0.253 µM) of 0.928 and a relative viability ([4]; first compound 0.8 µM) of 0.941. It also gave a relative viability ([4]; first compound 2.53 µM) of 0.92 and a relative viability ([4]; first compound 8 µM) of 0.895.
